# Reference: patent US20030170287A1, “Drug delivery systems for the prevention and treatment of vascular diseases” (priority 2002, published 2003)
# How the values were obtained:
# [1] = tested on: New Zealand White rabbit iliac arteries (balloon injury and stent); test: Inhibition of restenosis at 28 days in the rabbit iliac stent model; type: in vivo
# Procedure: A.2 Inhibition of Restenosis at 28 Days in the Rabbit Iliac Stent Model
# A combined angioplasty and stenting procedure is performed in New Zealand White rabbit iliac arteries. Iliac artery balloon injury is performed by inflating a 3.0 x 9.0 mm angioplasty balloon in the mid-portion of the artery followed by “pull-back” of the catheter for 1 balloon length. Balloon injury is repeated 2 times, and a 3.0×12 mm stent is deployed at 6 atm for 30 seconds in the iliac artery. Balloon injury and stent placement is then performed on the contralateral iliac artery in the same manner. A post-stent deployment angiogram is performed. All animals receive oral aspirin 40 mg/day daily as anti-platelet therapy and are fed standard low-cholesterol rabbit chow. Twenty-eight days after stenting, animals are anesthetized and euthanized and the arterial tree is perfused at 100 mmHg with lactated Ringer's for several minutes, then perfused with 10% formalin at 100 mmHg for 15 minutes. The vascular section between the distal aorta and the proximal femoral arteries is excised and cleaned of periadventitial tissue. The stented section of artery is embedded in plastic and sections are taken from the proximal, middle, and distal portions of each stent. All sections are stained with hematoxylin-eosin and Movat pentachrome stains. Computerized planimetry is performed to determine the area of the internal elastic lamina (IEL), external elastic lamina (EEL) and lumen. The neointima and neointimal thickness is measured both at and between the stent struts. The vessel area is measured as the area within the EEL. Data are expressed as mean±SEM. Statistical analysis of the histologic data is accomplished using analysis of variance (ANOVA) due to the fact that two stented arteries are measured per animal with a mean generated per animal. A P<0.05 is considered statistically significant.
# A compound of formula I, e.g. 40-O-(2-hydroxyethyl)-rapamycin, is administered orally by gavage at a loading dose of 1.5 mg/kg one day prior to stenting, then dosed at 0.75 mg/kg/day from the day of stenting until day 27 post-stenting. In this model, the treatment with the compounds of formula I results in a marked reduction in the extent of restenotic lesion formation: for example, the treatment with 40-O-(2-hydroxyethyl)-rapamycin produces a significant (P<0.03) reduction in neointimal thickness (40% reduction), neointimal area (24% reduction), and percent arterial stenosis (26% reduction) with a significant 32% increase in lumen area. There is extensive neointimal formation in placebo-treated animals at 28 days, with the lesions consisting of abundant smooth muscle cells in proteoglycan/collagen matrix and apparent full endothelial healing.
# [2] = tested on: ballooned carotid of Sprague Dawley rats; test: Inhibition of restenosis at 14 days in the rat carotid stent model (perivascular local delivery); type: in vivo, Sprague Dawley rat; conditions: administered locally (perivascular, osmotic pump) at 10 to 200 μg/day
# Procedure: A.3 Inhibition of Restenosis at 14 Days in the Rat Carotid Stent Model
# Male Sprague Dawley rats weighing […] are housed individually and allowed to acclimate prior to surgery. All animals receive standard rat chow and water ad libitum. Group size is 12 animals per group.
# The drug(s) administration is perivascular. A segment of ballooned carotid is encircled with a 1 cm length of silastic tubing (0.25 inch inside diameter, 0.47 inch outside diameter) to which is attached a catheter which feeds into an osmotic pump containing either compound or vehicle. This delivery system provides continuous, local delivery to the adventitia of the wrapped portion of vessel. Local drug(s) administration ranges between 5 μg and 10 mg, locally per day, depending on the solubility characteristics of the individual compounds. […]
# Animals are killed at 14 days post-balloon injury. […] Animals are killed by administration of an overdose of ketamine and rompun, the osmotic pumps are recovered and the volume of remaining content is recorded to ensure that pump failure has not occurred.
# Carotid arteries are excised and immersion fixed, then transferred to Ringer's solution. […] The intimal lesion area and the medial area are determined by measurement of the internal elastic lamina, the external elastic lamina and the vessel/lumen interface.
# [3] = tested on: balloon injured rat carotid arteries; test: Inhibition of late neointimal lesion formation in the 28 day rat carotid artery balloon injury model; type: in vivo; conditions: for percent inhibition of neointimal lesion formation: 28 days post-balloon injury
# Procedure: A1. Inhibition of Late Neointimal Lesion Formation in the 28 Day Rat Carotid Artery Balloon Injury Model
# Compounds of formula I are tested in the following rat model.
# Rats are dosed orally with placebo or a compound of formula I. Daily dosing starts 3 days prior to surgery and continues for 31 days. Rat carotid arteries are balloon injured using a method described by Clowes et al. Lab. Invest. 1983;49;208-215. Following sacrifice at 28 days post-balloon injury, carotid arteries are removed and processed for histologic and morphometric evaluation. […] For example for 40-O-(2-hydroxyethyl)-rapamycin administered at 0.5, 1.0, and 2.0 mg/kg, the percent inhibition is similar at all three doses: inhibition is 31% at the lowest dose (0.5 mg/kg) and 39% at the highest dose (2.0 mg/kg). Compounds of formula I, e.g. 40-O-(2-hydroxyethyl)-rapamycin, have the beneficial effect to inhibit lesions at 4 weeks post-ballooning.
# [4] = tested on: dialysis patients with indwelling large bore catheter; test: Prevention or reduction of vascular access dysfunction after insertion of an indwelling catheter into the vein of a patient; type: in vivo; conditions: daily dose of 0.75 to 20 mg, 3 month treatment, observation period of 6 months
# Procedure: A5. Prevention or Reduction of Vascular Access Dysfunction in Association with the Insertion of an Indwelling Catheter into the Vein of a Patient
# One hundred fifty prospective dialysis patients, who undergo successful insertion of an indwelling, large bore catheter, into a vein are selected for the study. […] In addition, patients may also be given a calcium antagonist, nitrates and/or anti-platelet agents. These drugs are administered for 3 consecutive months following catheter insertion.
# [5] = Release of 40-O-(2-hydroxyethyl)-rapamycin from coated stents; type: physicochemical; conditions: PBS pH 7.4 or PEG/water 40/60 v/v, 37° C., solutions changed daily; stable = less than 10% of variation of the drug release
# Procedure: Four 2 cm pieces of coated stents as described above are placed into 100 ml of phosphate buffer solution (PBS) having a pH of 7.4. Another 4 pieces from each series are placed into 100 ml polyethylene glycol (PEG)/water solution (40/60 v/v, MW of PEG=400). The stent pieces are incubated at 37° C. in a shaker. The buffer and PEG solutions are changed daily and different assays are performed on the solution to determine the released 40-O-(2-hydroxyethyl)-rapamycin concentrations. Such assays can show a stable release of 40-O-(2-hydroxyethyl)-rapamycin from coated stents for more than 45 days. By the term “stable release of 40-O-(2-hydroxyethyl)-rapamycin” is meant less than 10% of variation of the drug release. Controlled release techniques used by a person skilled in the art allow an unexpected easy adaptation of the required drug release rate. Thus, by selecting appropriate amounts of reactants in the coating mixture it is possible to easily control the bioeffectiveness of the rapamycin or rapamycin derivastive coated stents.
# [6] = oral loading dose 1.5 mg/kg, then 0.75 mg/kg/day to day 27, 28 days after stenting, P<0.03
smiles,measurement,setting,value
CO[C@H]1C[C@@H]2CC[C@@H](C)[C@@](O)(O2)C(=O)C(=O)N2CCCC[C@H]2C(=O)O[C@H]([C@H](C)C[C@@H]2CC[C@@H](OCCO)[C@H](OC)C2)CC(=O)[C@H](C)/C=C(\C)[C@@H](O)[C@@H](OC)C(=O)[C@H](C)C[C@H](C)/C=C/C=C/C=C/1C [40-O-(2-hydroxyethyl)-rapamycin],histology of the intima in arterial segments,"[1]; majority of arterial segments, 28 days after stenting",the intima is well healed
same,endothelialization of stented arteries (scanning electron microscopic analysis),"[1]; n=4 arteries, oral 1.5 mg/kg loading, 0.75 mg/kg/day, 28 days",84%
same,increase in lumen area,"[1]; oral loading dose 1.5 mg/kg, then 0.75 mg/kg/day to day 27, 28 days after stenting",32%
same,reduction in neointimal area,[1]; [6],24%
same,reduction in neointimal thickness,[1]; [6],40%
same,reduction in percent arterial stenosis,[1]; [6],26%
same,neointimal lesion formation at 14 days post ballooning,[2],reduces neointimal lesion formation
same,percent inhibition of neointimal lesion formation,[3]; 0.5 mg/kg oral daily,31%
same,percent inhibition of neointimal lesion formation,[3]; 2.0 mg/kg oral daily,39%
same,neointimal lesion formation at 28 days following balloon injury,[3]; oral dose of from 0.5 to 2.0 mg/kg,significantly reduce neointimal lesion formation
same,prevention or reduction of vascular access dysfunction after catheter insertion,[4],demonstrate the efficacy
same,duration of stable release from coated stents,[5],more than 45 days
